Values quoted from earlier work as cited in paper PMC3349014 (Journal of the American Chemical Society, 2012).

Conditions: over 3 h

Substance | Rat plasma levels after IV injection
Ac-Py-Py-β-Py-Im-Py-γ-Py-Py-Py-β-Im-Py-β-Dp [compound 1666] | drop to low percent over 3 h
Ac-Im-Py-Py-γ-Im-Py-Py-β-Dp [compound 1035] | drop to low percent over 3 h
